# Values of other authors in patent US9399756B2, “Functionalized fullerenes as a biomass stimulant and a life extension agent” (UNIVERSITY OF FLORIDA RESEARCH FOUNDATION, INC., priority 2010, dated 2016).
# Assays:
# [1] = system: mice; details: injected; Zhou et al. 2009
# [2] = system: mice; details: Quick et al., Neurobiology of Aging 2008
Substance,hair growth in mice [1],lifespan of mice [2]
(H23C11CO2)2CC60C(CO2CH2CO2H)2,may stimulate hair growth in mice,
"e,e,e-C60(C(CO2H)2)3",,may extend the lifespan of mice
